Reference: patent publication US11384060B2, “Amide compounds and use thereof” (ALPHALA CO., LTD., priority 2017, dated 2022)

How the values were obtained:
glucagon receptor (GCGR) = biological target: T1, glucagon receptor (GCGR) (Homo sapiens, UniProt P47871); assay: I125-glucagon binding assay (competition, GCGR membrane fractions); settings: competition with I125-glucagon 0.0625 nM, membrane fractions of GCGR overexpressed CHO-K1 cells
T1 construct: expressed in transfected cells; host or cells: CHO-K1 cells overexpressing GCGR (membrane fractions)
T1 sequence (P47871 26-477): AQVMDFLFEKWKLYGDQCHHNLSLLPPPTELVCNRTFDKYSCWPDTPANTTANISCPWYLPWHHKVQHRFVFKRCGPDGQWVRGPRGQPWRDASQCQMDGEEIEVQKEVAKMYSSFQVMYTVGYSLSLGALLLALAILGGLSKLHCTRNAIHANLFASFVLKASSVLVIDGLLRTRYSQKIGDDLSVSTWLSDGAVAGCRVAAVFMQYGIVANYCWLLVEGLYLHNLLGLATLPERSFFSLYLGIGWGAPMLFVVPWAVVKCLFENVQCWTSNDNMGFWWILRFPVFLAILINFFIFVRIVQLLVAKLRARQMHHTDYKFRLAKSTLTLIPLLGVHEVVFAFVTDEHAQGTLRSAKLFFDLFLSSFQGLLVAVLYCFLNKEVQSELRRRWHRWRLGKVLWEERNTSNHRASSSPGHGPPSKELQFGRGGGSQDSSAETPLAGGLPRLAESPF
Experimental: I^125-Glucagon Binding Assay
The binding affinity of each compound was evaluated by a competition assay with I^125-glucagon. GCGR membrane fractions were obtained from GCGR overexpressed CHO-K1 cells as a stock of 1 mg/ml concentration. To evaluate the IC50 of compounds binding to GCGR, GCGR membrane fractions were treated with compounds with a serial dilution. The membrane fractions were diluted to 7.5 microgram per well in 70 microliter assay buffer contained 50 mM Tris pH 7.4 and 0.5% (w/v) bovine serum albumin and added into 96 wells plate. The membrane fractions were then mixed with 10 microliter diluted compounds. After 5 minutes pre-incubation, 20 microliter I^125 labeled glucagon (Perkin Elmer) was added into each well at the final concentration of 0.0625 nM. The assay mixtures were incubated at 25° C. for 30 minutes and then transferred onto the Millipore MultiScreen GF/B Plate coated with 0.5% (w/v) Polyethyleneimine. The filter plate was washed with wash buffer contained 50 mM Tris pH 7.4 for 2 times, 300 microliter each time. The residual isotope was detected by Hidex CHAMELEON V micro-beta counter and the IC50 value of each compound binding to GCGR was calculated with non-linear regression.

[1] = biological target: T2, glucagon receptor (GCGR) overexpressed CHO-K1 cells or human primary hepatocytes (Homo sapiens, UniProt P47871); assay: Glucagon cAMP inhibition assay (Cisbio cAMP Dynamic 2 HTRF); assay type: cell-based; settings: inhibition of glucagon (EC50 concentration) induced cAMP production
T2 construct: expressed in transfected cells; host or cells: GCGR overexpressed CHO-K1 cells or human primary hepatocytes (endogenous receptor)
T2 sequence (P47871 26-477): as above
Experimental: Glucagon cAMP Inhibition Assay
Downstream secondary messenger cAMP induced by glucagon was detected by Cisbio cAMP Dynamic 2 kit. Testing compounds were each prepared as a dimethyl sulfoxide (DMSO) solution at the concentration of 10 mM. To evaluate the potency of compounds in inhibiting the cAMP production, glucagon receptor (GCGR) overexpressed CHO-K1 cells or human primary hepatocytes were treated with compounds with a serial dilution. The cells were re-suspended in Hank's Balanced Salt solution (HBSS) contained 0.1% (w/v) bovine serum albumin and 800 nM 3-isobutyl-1-methylxanthine (IBMX) and seeded into low volume, 384 wells white plate. The diluted compounds were then added into the plate for 30 minutes pre-incubation where the final DMSO concentration was 1%. The cells were stimulated with glucagon at the concentration equaled to EC50 (an indicium of the concentration of a drug that gives half-maximal response) for 30 minutes at room temperature. After incubation, lysis buffer contain cAMP antibody and fluorescence acceptor were added into each well for additional 60 minutes incubation. Results were recorded by Molecular Devices SpectraMax Paradigm with the HTRF Detection Cartridges and the IC50 value of each compound in inhibiting the cAMP production was calculated with non-linear regression based on the amount of cAMP production.

Compound	IC50 (glucagon receptor (GCGR)) [nM]	IC50 cAMP [1] [nM]
O=C(O)CCNC(=O)c1ccc(NC(COc2ccc(-c3cc4ccccc4o3)cc2)c2ccccc2)cc1 (centres unmarked) [Compound 1-23, 3-(4-((2-(4-(benzofuran-2-yl)phenoxy)-1-phenylethyl)amino)benzamido) propanoic Acid]	148	39.8
CC(C)[C@@H](COc1ccc(-c2ccc(C(F)(F)F)cn2)cc1)Nc1ccc(C(=O)NCCC(=O)O)cc1 [Compound 1-24, (S)-3-(4-((3-methyl-1-(4-(5-(trifluoromethyl)pyridin-2-yl)phenoxy)butan-2-yl)amino)benzamido)propanoic Acid]	134	187.5
CC(C)[C@@H](COc1ccc(-c2ccc(C(F)(F)F)cc2F)cc1)Nc1ccc(C(=O)NCCC(=O)O)cc1 [Compound 1-25]	44	90.4
CCCC[C@@H](COc1ccc(-c2ccc(C(F)(F)F)cc2F)cc1)Nc1ccc(C(=O)NCCC(=O)O)cc1 [Compound 1-27, (S)-3-(4-((1-((2′-fluoro-4′-(trifluoromethyl)-[1,1′-biphenyl]-4-yl)oxy)hexan-2-yl)amino)benzamido)propanoic Acid]	108	96.5
O=C(O)CCNC(=O)c1ccc(NC(COc2ccc(-c3ccc(C(F)(F)F)cc3)cc2)c2ccccc2)cc1 (centres unmarked) [Compound 1-28, 3-(4-((1-phenyl-2-((4′-(trifluoromethyl)-[1,1′-biphenyl]-4-yl)oxy)ethyl)amino)benzamido)propanoic Acid]	150	287.7
CC(C)[C@@H](COc1ccc(-c2ccc(C(F)(F)F)nn2)cc1)Nc1ccc(C(=O)NCCC(=O)O)cc1 [Compound 1-29, (S)-3-(4-((3-methyl-1-(4-(6-(trifluoromethyl)pyridazin-3-yl)phenoxy)butan-2-yl)amino)benzamido)propanoic Acid]	2790	>30000
CCOC(=O)CCNC(=O)c1ccc(N[C@H](COc2ccc(-c3nc4ccccc4s3)cc2)C(C)C)cc1 [Compound 1-30]	7630	1214
COC(=O)CCNC(=O)c1ccc(N[C@H](COc2ccc(-c3nc4ccccc4s3)cc2)C(C)C)cc1 [Compound 1-31, Methyl (S)-3-(4-((1-(4-(benzo[d]thiazol-2-yl)phenoxy)-3-methylbutan-2-yl)amino)benzamido)propanoate]	5770	83
CC(C)[C@@H](COc1ccc(-c2nc3ccccc3s2)cc1)Nc1ccc(C(=O)NCCC(=O)O)cc1 [Compound 1-32, (S)-3-(4-((1-(4-(benzo[d]thiazol-2-yl)phenoxy)-3-methylbutan-2-yl)amino)benzamido)propanoic Acid]	57	152
CC(C)[C@@H](COc1ccc(-c2ccc(C(F)(F)F)cc2F)cc1)Nc1ccc(C(=O)NCCS(=O)(=O)O)cc1 [Compound 1-33, (S)-2-(4-((1-((2′-fluoro-4′-(trifluoromethyl)-[1,1′-biphenyl]-4-yl)oxy)-3-methylbutan-2-yl)amino)benzamido)ethane-1-sulfonic Acid]	1900	3767
CC(C)[C@H](COc1ccc(-c2cc3ccccc3o2)cc1)Nc1ccc(C(=O)NCCC(=O)O)cc1 [Compound 1-34, (R)-3-(4-((1-(4-(benzofuran-2-yl)phenoxy)-3-methylbutan-2-yl)amino)benzamido) propanoic Acid]	113	238.7
CC(C)[C@H](COc1ccc(-c2ccc(C(F)(F)F)cc2Cl)cc1)Nc1ccc(C(=O)NCCC(=O)O)cc1 [Compound 1-35]	145	209.3
CC(C)(C)[C@@H](COc1ccc(-c2ccc(Cl)cc2Cl)cc1)Nc1ccc(C(=O)NCCC(=O)O)cc1 [Compound 1-36, (S)-3-(4-((1-((2′,4′-dichloro-[1,1′-biphenyl]-4-yl)oxy)-3,3-dimethylbutan-2-yl)amino)benzamido)propanoic Acid]	141	243
CC(C)[C@@H](COc1ccc(-c2ccc(N(C)C)cc2Cl)cc1)Nc1ccc(C(=O)NCCC(=O)O)cc1 [Compound 1-37, (S)-3-(4-((1-((2′-chloro-4′-(dimethylamino)-[1,1′-biphenyl]-4-yl)oxy)-3-methylbutan-2-yl)amino)benzamido)propanoic Acid]	372	376
CC[C@H](C)[C@@H](COc1ccc(-c2ccc(OC)cc2Cl)cc1)Nc1ccc(C(=O)NCCC(=O)O)cc1 [Compound 1-38, 3-(4-(((2S,3S)-1-((2′-chloro-4′-methoxy-[1,1′-biphenyl]-4-yl)oxy)-3-methylpentan-2-yl)amino)benzamido)propanoic Acid]	172	203
CC(C)[C@@H](COc1ccc(-c2cn3ccccc3n2)cc1)Nc1ccc(C(=O)NCCC(=O)O)cc1 [Compound 1-39, (S)-3-(4-((1-(4-(imidazo[1,2-a]pyridin-2-yl)phenoxy)-3-methylbutan-2-yl)amino)benzamido)propanoic Acid]	3810	17895
CC(C)(C)[C@@H](COc1ccc(-c2cc3ccccc3o2)cc1)Nc1ccc(C(=O)NCCC(=O)O)cc1 [Compound 1-40, (S)-3-(4-((1-(4-(benzofuran-2-yl)phenoxy)-3,3-dimethylbutan-2-yl)amino)benzamido)propanoic Acid]	195	235.3
CC(C)[C@@H](COc1ccc(-c2cc3ncccc3o2)cc1)Nc1ccc(C(=O)NCCC(=O)O)cc1 [Compound 1-41, (S)-3-(4-((1-(4-(furo[3,2-b]pyridin-2-yl)phenoxy)-3-methylbutan-2-yl)amino)benzamido)propanoic Acid]	227	1403
CC(C)(C)[C@@H](COc1ccc(-c2ccc(C(F)(F)F)cc2Cl)cc1)Nc1ccc(C(=O)NCCC(=O)O)cc1 [Compound 1-42, (S)-3-(4-((1-((2′-chloro-4′-(trifluoromethyl)-[1,1′-biphenyl]-4-yl)oxy)-3,3-dimethylbutan-2-yl)amino)benzamido)propanoic aid]	234	298
CC(C)[C@@H](COc1ccc(-c2nnc(C(F)(F)F)o2)cc1)Nc1ccc(C(=O)NCCC(=O)O)cc1 [Compound 1-43, 3-(4-((3-methyl-1-(4-(5-(trifluoromethyl)-1,3,4-oxadiazol-2-yl)phenoxy)butan-2-yl)amino)benzamido)propanoic Acid]	583	>30000
CCC(C)[C@@H](COc1ccc(-c2nnc(C(F)(F)F)o2)cc1)Nc1ccc(C(=O)NCCC(=O)O)cc1 (some centres unmarked) [Compound 1-44, 3-(4-((3-methyl-1-(4-(5-(trifluoromethyl)-1,3,4-oxadiazol-2-yl)phenoxy)pentan-2-yl)amino)benzamido)propanoic Acid]	388	10000
CC[C@H](C)[C@@H](COc1ccc(-c2nnc(C(C)(C)C)o2)cc1)Nc1ccc(C(=O)NCCC(=O)O)cc1 [Compound 1-45, 3-(4-(((2S,3S)-1-(4-(5-(tert-butyl)-1,3,4-oxadiazol-2-yl)phenoxy)-3-methylpentan-2-yl)amino)benzamido)propanoic Acid]	1520	11981
